Results reported in patent publication US20230227506A1, “Fatty Acid Complexes Of Coronavirus Spike Protein And Their Use” (priority 2020, published 2023).
Entries after “also recorded” stand apart in the source; their conditions may differ. Like-named read-outs stand apart in the source and are kept apart here.

Assays:
SARS-CoV-2 Spike protein [1] = assay type: cell-based
coronaviruses = conditions: reference (4); cited from earlier work
[2] = tested on: SARS-CoV-2 S glycoprotein; assay type: binding
Caco-2-ACE2 cells = conditions: 50 uM linoleic acid
SARS-CoV-2 Spike protein [3] = assay type: binding
[4] = tested on: SARS-CoV-2 reporter virus (rSARS-CoV-2/Wuhan/ORF7-tGFP); assay type: cell-based
[5] = cited from earlier work
[6] = target: T1, SARS-CoV-2 Spike Protein receptor binding domain (RBD) (Severe acute respiratory syndrome coronavirus 2, UniProt P0DTC2)
T1 construct: SARS-CoV-2 RBD (amino acids R319 to F541); made in house; host or cells: Hi5 insect cells, MultiBac baculovirus

Structure (SMILES) | Minivirus-ACE2 cell binding compared to ApoS Miniviruses (SARS-CoV-2 Spike protein [1]) | Virus replication on exogenous supplement (coronaviruses) | Binding to S in the trimer seen by cryo-EM [2] | Cell death of treated infected cells (Caco-2-ACE2 cells) | Binding of FFA in Spike protein verified by LC-MS/MS (SARS-CoV-2 Spike protein [3]) | Effect on SARS-CoV-2 replication factories [4] | Effect on viral particles [4] | Water solubility [5] | Water solubility (in words) [5] | Water solubility (in words) ([5]; listed as Linoleic Acid) | Binding to immobilized RBD quantified by SPR [6]
CCCCC/C=C\C/C=C\C/C=C\C/C=C\CCCC(=O)O [AA, arachidonic acid] | able to reduce | suppressed virus replication | – | – | – | – | – | – | – | – | –
CCCCC/C=C\C/C=C\CCCCCCCC(=O)O [LA, linoleic acid] | able to reduce | suppressed virus replication | tightly binds | significant cell death was not observed | successfully verified | disrupted; also recorded: wrecked | visible deformation and destruction | about 100 mg/l | extremely low water solubility | virtually insoluble in water | high affinity binding
CCCCCCCC/C=C\CCCCCCCC(=O)O [OA, oleic acid] | able to reduce | – | – | – | successfully verified | – | – | – | – | – | High affinity binding
CCCCCCCCCCCCCCCC(=O)O [PA, palmitic acid] | did not significantly reduce | – | – | – | not | – | – | – | – | – | –
